A value given as a limit tells only on which side of the number the result lay.

The record followed here is patent US20260217708A1, “FUSED BENZAZEPINE DERIVATIVES FOR USE IN THE TREATMENT OF CANCER AND EPILEPSY” (UCB BIOPHARMA SRL, priority 2023, published 2026).

In assay [1] the target is T1, system Xc^− (Homo sapiens, UniProt Q9UPY5).
T1 sequence (Q9UPY5 1-501): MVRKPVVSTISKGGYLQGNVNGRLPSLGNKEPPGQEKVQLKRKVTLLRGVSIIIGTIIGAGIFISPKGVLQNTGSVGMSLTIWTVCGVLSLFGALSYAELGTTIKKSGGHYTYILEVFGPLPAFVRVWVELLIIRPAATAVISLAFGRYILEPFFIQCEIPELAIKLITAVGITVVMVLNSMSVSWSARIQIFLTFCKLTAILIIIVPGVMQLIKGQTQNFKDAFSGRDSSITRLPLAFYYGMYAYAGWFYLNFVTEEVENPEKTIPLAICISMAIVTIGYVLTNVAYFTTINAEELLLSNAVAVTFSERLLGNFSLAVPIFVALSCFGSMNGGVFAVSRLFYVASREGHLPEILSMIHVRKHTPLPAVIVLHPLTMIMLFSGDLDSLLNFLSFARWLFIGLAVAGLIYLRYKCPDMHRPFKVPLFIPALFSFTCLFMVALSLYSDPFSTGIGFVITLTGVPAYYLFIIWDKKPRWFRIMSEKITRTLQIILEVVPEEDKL
T1 sequence (P08195 1-529 partner): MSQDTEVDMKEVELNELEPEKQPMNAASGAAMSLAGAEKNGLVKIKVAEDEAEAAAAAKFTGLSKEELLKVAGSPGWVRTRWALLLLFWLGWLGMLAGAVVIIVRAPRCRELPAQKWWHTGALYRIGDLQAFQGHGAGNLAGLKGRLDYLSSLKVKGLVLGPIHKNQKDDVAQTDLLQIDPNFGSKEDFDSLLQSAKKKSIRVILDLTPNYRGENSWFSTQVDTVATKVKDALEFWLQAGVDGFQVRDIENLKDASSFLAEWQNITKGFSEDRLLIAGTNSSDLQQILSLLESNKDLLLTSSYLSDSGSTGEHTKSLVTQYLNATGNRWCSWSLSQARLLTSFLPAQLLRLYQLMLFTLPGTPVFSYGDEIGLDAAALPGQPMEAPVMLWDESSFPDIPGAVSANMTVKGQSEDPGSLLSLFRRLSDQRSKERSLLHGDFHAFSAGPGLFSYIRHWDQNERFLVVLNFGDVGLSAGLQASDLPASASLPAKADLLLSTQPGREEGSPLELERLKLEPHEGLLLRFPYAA
In words: [^14C]L-Cystine uptake assay. Format: cell-based. More on the design: endogenous in cells; host or cells: H4 cells. As to conditions: H4 cells, sodium-free HEPES buffer, 0.5 μM L-[14C]Cystine and 4.5 μM L-Cystine, 1 hour at 37° C.; read-out: pIC50 [^14C] L-Cystine uptake assay (converted). In a few lines:
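Compound effect is given as pIC50, taken between controls of 1% DMSO and 50 μM Erastin. Human H4 cells were pretreated 15 min with compound in sodium-free buffer, then took up 0.5 μM [14C]cystine with 4.5 μM cold cystine for 1 hour at 37° C, read by scintillation proximity counting.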

For assay [2], the target named is T1, system Xc^−. The assay is described as follows: Cystine-induced glutamate release assay. Format: cell-based. Set-up: endogenous in cells; host or cells: H4 cells. As to conditions: H4 cells, sodium-free HEPES buffer, 50 μM L-Cystine, 2 hours, Amplex Red glutamate readout; read-out: pIC50 Cystine-induced glutamate release assay (converted). In a few lines:
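IC50 (reported as pIC50) normalized to DMSO 1% and Erastin 50 μM controls, from Amplex Red fluorescence of glutamate exported into supernatant. H4 cells were washed into sodium-free buffer to exclude EAAT transport, then given compound with 50 μM L-cystine for 2 h in the incubator.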

Turning to `Cc1cc2c(c(Cl)n1)-c1cc(F)cnc1C(C)C(=O)N2CC(=O)Nc1ccc(C(C)(F)F)cc1` (single isomer, unassigned) [#423, 2-(3-chloro-14-fluoro-5,10-dimethyl-9-oxo-4,8,12-triazatricyclo[9.4.0.0^2,7]pentadeca-1(11),2,4,6,12,14-hexaen-8-yl)-N-[4-(1,1-difluoroethyl)phenyl]acetamide], the IC50 at system Xc^− [1] and on system Xc^− [2] was under 15.8 nM each time.

Take `Cc1cc2c(c(Cl)n1)-c1cccnc1[C@@H](C)C(=O)N2CC(=O)Nc1ccc(C(F)(F)F)cc1` (single isomer, unassigned) [#197, Enantiomer (10R) or (10S) of 2-[3-chloro-5,10-dimethyl-9-oxo-4,8,12-triazatricyclo[9.4.0.0^2,7]pentadeca-1(11),2,4,6,12,14-hexaen-8-yl]-N-[4-(trifluoromethyl)phenyl]acetamide]: the IC50 at system Xc^− [1] and on system Xc^− [2] was under 15.8 nM each time.

As to `Cc1cc2c(cn1)-c1ccc(Cl)cc1CC(=O)N2CC(=O)Nc1ccc(C(F)(F)F)cc1` [#44, 2-(9-chloro-3-methyl-6-oxo-7H-pyrido[4,3-d][3]benzazepin-5-yl)-N-[4-(trifluoromethyl)phenyl]acetamide], the IC50 on system Xc^− [1] and at system Xc^− [2] was 39.8 to 100 nM in each case.

Turning to `CN1CC(c2cc3c(c(Cl)n2)-c2cccnc2CC(=O)N3CC(=O)Nc2ccc(C(F)(F)F)cc2)C1` [#170, 2-[3-chloro-5-(1-methylazetidin-3-yl)-9-oxo-4,8,12-triazatricyclo[9.4.0.0^2,7]pentadeca-1(11),2(7),3,5,12,14-hexaen-8-yl]-N-[4-(trifluoromethyl)phenyl]acetamide], the IC50 at system Xc^− [1] and at system Xc^− [2] was 39.8 to 100 nM in each case.

For the molecule `COc1cc2c(c(Cl)n1)-c1ccnn1C(C)C(=O)N2CC(=O)Nc1ccc(Cl)c(F)c1` (single isomer, unassigned) [#387, N-(4-chloro-3-fluoro-phenyl)-2-[14-chloro-12-methoxy-7-methyl-8-oxo-5,6,9,13-tetrazatricyclo[8.4.0.0^2,6]tetradeca-1(10),2,4,11,13-pentaen-9-yl]acetamide], the IC50 on system Xc^− [1] and at system Xc^− [2] was 15.8 to 39.8 nM throughout.

As to `Cc1cc2c(c(Cl)n1)-c1cc(F)cnc1C(C)C(=O)N2CC(=O)Nc1ccc(C(F)(F)F)cn1` (single isomer, unassigned) [#424, 2-(3-chloro-14-fluoro-5,10-dimethyl-9-oxo-4,8,12-triazatricyclo[9.4.0.0^2,7]pentadeca-1(11),2,4,6,12,14-hexaen-8-yl)-N-[5-(trifluoromethyl)-2-pyridyl]acetamide], the IC50 at system Xc^− [1] and at system Xc^− [2] was 15.8 to 39.8 nM in each case.

In the case of `CC1C(=O)N(CC(=O)Nc2ccc(C(F)F)cc2)c2cc(Cl)cc(F)c2-c2cncnc21` (single isomer, unassigned) [#313, 2-[9-chloro-11-fluoro-5-methyl-6-oxo-5H-pyrimido[4,5-d][1]benzazepin-7-yl]-N-[4-(difluoromethyl)phenyl]acetamide], the IC50 on system Xc^− [1] was 15.8 to 39.8 nM; at system Xc^− [2], under 15.8 nM.

Turning to `Cc1cc2c(c(CO)n1)-c1ccccc1CC(=O)N2CC(=O)Nc1ccc(C(F)(F)F)cc1` [#66, 2-[1-(hydroxymethyl)-3-methyl-6-oxo-7H-pyrido[4,3-d][3]benz-azepin-5-yl]-N-[4-(trifluoromethyl)phen-yl]acetamide], the IC50 on system Xc^− [1] was 39.8 to 100 nM; on system Xc^− [2], 100 to 501 nM.

`Cc1cc2c(cn1)-c1ccc(F)cc1C(C)C(=O)N2CC(=O)Nc1ccc(C(F)F)cc1` (single isomer, unassigned) [#323, N-[4-(difluoromethyl)phenyl]-2-[9-fluoro-3,7-dimethyl-6-oxo-7H-pyrido[3,4-a][3]benzazepin-5-yl]acetamide]: the IC50 on system Xc^− [1] and on system Xc^− [2] was under 15.8 nM each time.

Turning to `CC1C(=O)N(CC(=O)Nc2ccc(C(F)(F)F)nc2)c2cc(N3CC(F)(F)C3)ccc2-c2cccnc21` (single isomer, unassigned) [#333, 2-[9-(3,3-difluoroazetidin-1-yl)-5-methyl-6-oxo-5H-pyrido[2,3-d][1]benzazepin-7-yl]-N-[6-(trifluoromethyl)-3-pyridyl]acetamide], the IC50 on system Xc^− [1] is 15.8 to 39.8 nM; on system Xc^− [2], 39.8 to 100 nM.

`Cc1cc2c(cc1C)N(CC(=O)Nc1ccc(Cl)c(F)c1)C(=O)Cc1ccncc1-2` [#2, N-(4-chloro-3-fluoro-phenyl)-2-(9,10-dimethyl-6-oxo-5H-pyrido[4,3-d][1]benzazepin-7-yl)acetamide]: the figures for the IC50 on system Xc^− [1] and on system Xc^− [2] were 15.8 to 39.8 nM and 100 to 501 nM, respectively.

On to `CC1C(=O)N(CC(=O)Nc2ccc(C(F)F)cc2)c2cc(C3CC3)c(=O)n(C)c2-c2ccccc21` (centres unmarked) [#322, 2-(3-cyclopropyl-1,7-dimethyl-2,6-dioxo-7H-pyrido[3,2-d][3]benzazepin-5-yl)-N-[4-(difluoromethyl)phenyl]acetamide], for which the IC50 at system Xc^− [1] was 39.8 to 100 nM; on system Xc^− [2], 15.8 to 39.8 nM.

As for `O=C(CN1C(=O)Cc2ncccc2-c2c1ccnc2Cl)Nc1ccc(C(F)(F)F)cc1` [#53, 2-(3-chloro-9-oxo-4,8,12-triazatricyclo [9.4.0.0^2,7]pentadeca-1(11),2(7),3,5,12,14-hexaen-8-yl)-N-[4-(trifluoromethyl)phen-yl]acetamide], the IC50 was 39.8 to 100 nM on system Xc^− [1] and 100 to 501 nM on system Xc^− [2].

Consider `Cc1cc2c(c(F)n1)-c1cnccc1C(C)C(=O)N2CC(=O)Nc1ccc(C(F)F)cc1` (single isomer, unassigned) [#259, N-[4-(difluoromethyl)phenyl]-2-[3-fluoro-5,10-dimethyl-9-oxo-4,8,14-triazatricyclo[9.4.0.0^2,7]pentadeca-1(15),2,4,6,11,13-hexaen-8-yl]acetamide], for which the IC50 at system Xc^− [1] and on system Xc^− [2] was under 15.8 nM throughout.

As to `Cc1cc2c(c(Cl)n1)-c1cccnc1C(C)C(=O)N2CC(=O)Nc1ccc(C(F)F)nc1` (single isomer, unassigned) [#230, Enantiomer (10R) or (10S) of 2-[3-chloro-5,10-dimethyl-9-oxo-4,8,12-triazatricyclo[9.4.0.0^2,7]pentadeca-1(11),2(7),3,5,12,14-hexaen-8-yl]-N-[6-(difluoromethyl)-3-pyridyl]acetamide], the IC50 at system Xc^− [1] and at system Xc^− [2] was 15.8 to 39.8 nM in each case.

On to `CC1C(=O)N(CC(=O)Nc2ccc(Cl)c(F)c2)c2cc(Cl)cc(F)c2-c2cnncc21` (single isomer, unassigned) [#385, 2-[9-chloro-11-fluoro-5-methyl-6-oxo-5H-pyridazino[4,5-d][1]benzazepin-7-yl]-N-(4-chloro-3-fluoro-phenyl)acetamide], for which the IC50 at system Xc^− [1] is under 15.8 nM; on system Xc^− [2], 15.8 to 39.8 nM.

In the case of `Cc1cc2c(c(Cl)n1)-c1cccnc1C(C)C(=O)N2CC(=O)Nc1cc(F)c(Cl)cc1F` (single isomer, unassigned) [#226, Enantiomer (10S) or (10R) of N-(4-chloro-2,5-difluoro-phenyl)-2-[3-chloro-5,10-dimethyl-9-oxo-4,8,12-triazatricyclo[9.4.0.0^2,7]pentadeca-1(11),2(7),3,5,12,14-hexaen-8-yl]acetamide], the IC50 at system Xc^− [1] was 15.8 to 39.8 nM; on system Xc^− [2] it was under 15.8 nM.

For the molecule `Cc1cc2c(c(F)n1)-c1cccnc1CC(=O)N2CC(=O)Nc1ccc(C(F)(F)F)cc1` [#40, 2-(3-fluoro-5-methyl-9-oxo-4,8,12-triaza-tricyclo[9.4.0.0^2,7]pentadeca-1(11),2(7), 3,5,12,14-hexaen-8-yl)-N-[4-(trifluoro-methyl)phenyl]acet-amide], the IC50 on system Xc^− [1] was under 15.8 nM; at system Xc^− [2] it was 15.8 to 39.8 nM.

In the case of `CC1C(=O)N(CC(=O)Nc2ccc(Cl)c(F)c2)c2cc(C(F)F)ncc2-c2cccnc21` (single isomer, unassigned) [#342, N-(4-chloro-3-fluoro-phenyl)-2-[5-(difluoromethyl)-10-methyl-9-oxo-4,8,12-triazatricyclo[9.4.0.0^2,7]pentadeca-1(15),2,4,6,11,13-hexaen-8-yl]acetamide], the IC50 at system Xc^− [1] and on system Xc^− [2] was under 15.8 nM throughout.
